Test results as given in patent publication US20050038093A1, “Treating diabetic retinopathy with angiotensin II receptor blockers” (Boehringer Ingelheim International GmbH, priority 2003, published 2005).

What was measured:
[1] = EUCLID study, cited from earlier work
[2] = tested on: pericytes isolated from bovine retina; experiment: Measurement of reactive oxygen species in pericytes; type: cell-based; details: for inhibition of angiotensin II-induced increase in the generation of reactive oxygen species in pericytes: 10^-7 M telmisartan, 10^-7 or 10^-6 M angiotensin II
Description: (§1) Pericytes were isolated from bovine retina and maintained in Dulbecco's Eagle's medium supplemented with 20% of fetal bovine serum (FBS) as described in Yamagishi et al, Circulation 87:1969, 1993.
Angiotensin II treatment was carried out in medium containing 2% FBS. Pericytes were treated with or without 10^−7 or 10^−6 M angiotensin II in the presence or absence of 10^−7 M telmisartan for 24 hours. Then the intracellular formation of reactive oxygen species was detected as described in Yamagishi et al, A J Biol Chem 276:25096, 2001 by using the fluorescent probe CM-H2DCFDA (Molecular Probes Inc, Eugene, Oreg.).

pericytes = experiment: Measurement of [3H]thymidine incorporation in pericytes; type: cell-based, bovine; details: 10^-7 M angiotensin, 24 hours
Description: as §1
Pericytes were treated with or without 10^−7 M angiotensin in the presence or absence of 1 mM N-acetylcystein (NAC) for 24 hours, and then [^3H]thymidine incorporation in cells was determined as described in Yamagishi et al, FEBS Lett 384:103, 1996.

VEGF mRNA = experiment: Quantitative reverse transcription PCR of VEGF mRNA in pericytes; type: cell-based, bovine; details: 10^-7 M angiotensin II, 4 hours; for inhibition of angiotensin II-induced up-regulation of VEGF mRNA levels in pericytes: 10^-7 M telmisartan or 1 mM NAC
Description: Sequences and primers for detecting VEGF and β-actin mRNAs are described in Yamagishi et al, J Biol Chem 272:8723, 1997.
(§2) Poly(A)^+ RNAs were isolated from cells treated with or without 10^−7 M angiotensin II in the presence or absence of 10^−7 M telmisartan or 1 mM NAC for 4 hours, and analyzed by quantitative reverse transcription PCR (RT-PCR) as described in Yamagishi et al, Diabetologia 41:1435, 1998. The amounts of poly(A)^+ RNA templates (about 30 ng) and cell cycle numbers for amplification (28 cycles for VEGF gene and 22 cycles for β-actin gene) were chosen in quantitative ranges were reactions proceeded linearly, which had been determined by plotting signal intensities as functions of the template amounts and cell cycle numbers as described in Yamagishi et al, J Biol Chem 277:20309, 2002.
It has been reported that there exist five alternatively spliced products from the single VEGF gene. They are designated as VEGF121, VEGF145, VEGF165 VEGF189, and VEGF206. Since Northern blot analysis can not clearly discriminate these five mRNA products, we employed a more sensitive semi-quantitative RT-PCR technique as described in Okamoto et al, FASEB J 16:1928, 2002. In these experiments, cDNA products of 486 and 618 base pairs length are amplified from mRNAs for VEGF121 and VEGF165, respectively. […] The VEGF mRNA level was about 1.5 fold higher than the basal level when exposed to 10^−7 M angiotensin II.

PDGF-B mRNA = experiment: Quantitative reverse transcription PCR of PDGF-B mRNA in cultured retinal pericytes; type: cell-based, bovine; details: 10^-7 M angiotensin II, 4 hours; for inhibition of angiotensin II induced up-regulation of PDGF mRNA levels: 10^-7 M telmisartan or 1 mM NAC
Description: as §2, with “To investigate the effects of angiotensin II on PDGF-B gene expression in cultured retinal pericytes, poly(A)^+” for “Poly(A)^+”, “RT-PCR” for “quantitative reverse transcription PCR (RT-PCR)”, “Kidney Int 63:464, 2003.” for “Diabetologia 41:1435, 1998.”, “PDGF-B” for “VEGF”, “2002. Sequences of primers for detecting bovine β-actin mRNAs were the same as described in Okamoto et al, FASEB J 16:1928, 2002.” for “2002.”

[3] = IDNT study (Lewis et al, 2001); cited from earlier work

Compound: NCCCC[C@H](N[C@@H](CCc1ccccc1)C(=O)O)C(=O)N1CCC[C@H]1C(=O)O [lisinopril]
- risk of progression to proliferative retinopathy [1]: significantly reduced
- reduction of the risk of progression of retinopathy ([1]; retinopathy not a primary endpoint): approximately 50%

Compound: angiotensin II (DRVYIHPF; Angiotensin-2; UniProt P01019 25-32, looked up) [stimulus used on pericytes]
- increase of intracellular generation of reactive oxygen species ([2]; 10^-6 M angiotensin II, 24 hours, medium with 2% FBS): about 1.3 fold
- effect on DNA synthesis in pericytes ([3H]thymidine incorporation) (pericytes): significantly inhibited
- VEGF mRNA level relative to basal level (VEGF mRNA): about 1.5 fold
- PDGF-B mRNA level relative to basal level (PDGF-B mRNA): about 5 fold

Compound: CC(=O)N[C@@H](CS)C(=O)O [NAC, N-acetylcystein]
- reversal of angiotensin II-induced increase in generation of reactive oxygen species by antioxidant ([2]; added during treatment of pericytes with angiotensin II): reverses the increase
- prevention of angiotensin II-induced decrease in DNA synthesis in pericytes (pericytes; 1 mM NAC): significantly prevented
- inhibition of angiotensin II-induced up-regulation of VEGF mRNA levels in pericytes (VEGF mRNA): completely inhibit
- inhibition of angiotensin II induced up-regulation of PDGF mRNA levels (PDGF-B mRNA): significantly inhibit

Compound: CCCCC1=NC2(CCCC2)C(=O)N1Cc1ccc(-c2ccccc2-c2nnn[nH]2)cc1 [irbesartan]
- protection against the progression of nephropathy due to type II diabetes [3]: effective

Compound: CCCc1nc2c(C)cc(-c3nc4ccccc4n3C)cc2n1Cc1ccc(-c2ccccc2C(=O)O)cc1 [telmisartan]
- effect of compound alone on generation of reactive oxygen species ([2]; 10^-7 M telmisartan without angiotensin II, 24 hours): did not affect
- inhibition of angiotensin II-induced increase in the generation of reactive oxygen species in pericytes ([2]; 24 hours): inhibit
- inhibition of angiotensin II-induced increase in the generation of reactive oxygen species in pericytes ([2]; 24 hours, listed as Telmisartan): completely inhibit
- inhibition of angiotensin II-induced up-regulation of VEGF mRNA levels in pericytes (VEGF mRNA): completely inhibit
- inhibition of angiotensin II induced up-regulation of PDGF mRNA levels (PDGF-B mRNA): significantly inhibit
